This is an account of results in patent US4622417A, “L-aminodicarboxylic-(O-cycloalkyl)-L-aminocarboxylate alkyl ester sweeteners” (General Foods Corporation, priority 1984, dated 1986).

This test has as its system panel of tasters. The experiment in a line: Sensory evaluation of sweetness: taste panel matches aqueous solutions of the compound to sucrose standard solutions (sucrose equivalency). It counts as in vivo. The note with it: for Sucrose Equivalent: aqueous solution. The source says: A taste procedure for determination of sweetness merely involves the determination of sucrose equivalency. Sucrose equivalence for sweeteners are readily determined. The amount of a sweetener that is equivalent to a given weight percent sucrose can be determined by having a panel of tasters taste solutions of a sweetener at known concentrations and match its sweetness to standard solutions of sucrose. The following sensory evaluations were obtained by a panel of experts using known weight percent aqueous solutions of the above compound matched to sucrose standard solutions as previously described.

Setting [1] is: 0.005% concentration of compound.
Where [2] appears, read: 0.01% concentration of compound.
[3] abbreviates: 0.02% concentration of compound.
Where [4] appears, read: 0.025% concentration of compound.
The mark [5] stands for this setting: 0.05% concentration of compound.
Setting [6] is: 0.04% concentration of compound.
Where [7] appears, read: 0.0025% concentration of compound.

Consider `COC(=O)[C@H](CO[C@@]1(C)CCCC[C@H]1C)NC(=O)[C@@H](N)CC(=O)O` (single isomer, unassigned) [Example 4 CIS ISOMER, L-aspartyl-O-(cis-1,2-dimethylcyclohexyl)-L-serine methyl ester], for which the “Sweetness ratio (Compound:Sucrose)” value by setting is: under setting [1], 400; under setting [2], 400; under setting [3], 350. For the same compound, the “Sucrose Equivalent” value came to 2.0% under setting [1]; 2% (0.005% concentration of compound, listed as Cis-1,2-dimethylcyclohexyl); 4.0% under setting [2]; 4% (0.01% concentration of compound, listed as Cis-1,2-dimethylcyclohexyl); 7.0% under setting [3]; 7% (0.02% concentration of compound, listed as Cis-1,2-dimethylcyclohexyl).

For the compound `COC(=O)[C@H](CO[C@]1(C)CCCC[C@H]1C)NC(=O)[C@@H](N)CC(=O)O` (single isomer, unassigned) [Example 4 TRANS ISOMER, L-aspartyl-O-(trans-1,2-dimethylcyclohexyl)-L-serine methyl ester], the “Sweetness ratio (Compound:Sucrose)” value under setting [1] was 300, the “Sweetness ratio (Compound:Sucrose)” value under setting [2] stood at 300 and the “Sweetness ratio (Compound:Sucrose)” value under setting [3] worked out at 250. The “Sucrose Equivalent” value is, setting by setting: under setting [1], 1.5%; under setting [2], 3.0%; (0.01% concentration of compound, listed as trans-1,2-dimethylcyclohexyl) 3%; under setting [3], 5.0%; (0.02% concentration of compound, listed as trans-1,2-dimethylcyclohexyl) 5%.

For the compound `COC(=O)[C@H](COC1CCCC1(C)C)NC(=O)[C@@H](N)CC(=O)O` (stereo partly drawn) [2,2-dimethylcyclopentyl, α-L-aspartyl-O-(2,2-dimethylcyclopentyl)-L-serine methyl ester], the “Sweetness ratio (Compound:Sucrose)” value is, setting by setting: under setting [1], 600; under setting [2], 530; under setting [4], 360. Besides, the “Sucrose Equivalent” value by setting is: under setting [1], 3%; under setting [2], 5.3%; under setting [4], 9%.

Turning to `COC(=O)[C@H](COCCC12C=CC(CC1)C2)NC(=O)[C@@H](N)CC(=O)O` (stereo partly drawn) [2-(4-norbornenyl)ethyl, α-L-Aspartyl-O-[2-(4-norbornenyl)ethyl]-L-serine methyl ester], under setting [5], the “Sweetness ratio (Compound:Sucrose)” value is given as 117 and the “Sucrose Equivalent” value came to 5.8%.

Take `COC(=O)[C@H](COC1CCCCC1C)NC(=O)[C@@H](N)CC(=O)O` (stereo partly drawn) [2-cis-methylcyclohexyl, α-L-aspartyl-O-(2-methylcyclohexyl)-L-serine methyl ester]: the “Sweetness ratio (Compound:Sucrose)” value reads like this: under setting [1], 360; under setting [2], 320; under setting [4], 240. The “Sucrose Equivalent” value under setting [1] is 1.8%, the “Sucrose Equivalent” value under setting [2] is 3.2% and the “Sucrose Equivalent” value under setting [4] is reported as 6%.

For the compound `COC(=O)[C@H](COCCC1CC2CCC1C2)NC(=O)[C@@H](N)CC(=O)O` (stereo partly drawn) [2-norbornylethyl, α-L-Aspartyl-O-2-norbornylethyl-L-serine methyl ester], under setting [6], the “Sweetness ratio (Compound:Sucrose)” value was found to be 105 and the “Sucrose Equivalent” value is given as 4.2%.

As for `COC(=O)[C@H](COC1(C)CCCCC1)NC(=O)[C@@H](N)CC(=O)O` [Example 2, L-aspartyl-O-(1-methylcyclohexyl)-L-serine methyl ester], the “Sweetness ratio (Compound:Sucrose)” value was 400 under setting [1], 450 under setting [2] and 340 under setting [4]. For the same compound, the “Sucrose Equivalent” value runs as follows: under setting [1], 2%; under setting [2], 4.5%; under setting [4], 8.5%.

For `COC(=O)[C@H](COC1(C)CCC1)NC(=O)[C@@H](N)CC(=O)O` [Example 3, L-aspartyl-O-(1-methylcyclobutyl)-L-serine methyl ester], under setting [2], the “Sweetness ratio (Compound:Sucrose)” value is listed as 200 and the “Sucrose Equivalent” value is recorded as 2%. In addition, under setting [5], the “Sweetness ratio (Compound:Sucrose)” value is recorded as 160 and the “Sucrose Equivalent” value is listed as 8%.

For `CCC1(OC[C@H](NC(=O)[C@@H](N)CC(=O)O)C(=O)OC)CCCC1` [Example 5, L-aspartyl-O-(1-ethylcyclopentyl)-L-serine methyl ester], the “Sweetness ratio (Compound:Sucrose)” value reads like this: under setting [1], 400; under setting [2], 400; under setting [3], 300. Moreover, the “Sucrose Equivalent” value under setting [1] amounted to 2%, the “Sucrose Equivalent” value under setting [2] is given as 4% and the “Sucrose Equivalent” value under setting [3] stood at 6%.

In the case of `COC(=O)[C@H](COC1(C)CC=CCC1)NC(=O)[C@@H](N)CC(=O)O` (stereo partly drawn) [Example 7, L-aspartyl-O-(1-methylcyclohex-3-enyl)-L-serine methyl ester], the “Sweetness ratio (Compound:Sucrose)” value under setting [1] is 400, the “Sweetness ratio (Compound:Sucrose)” value under setting [2] amounted to 250 and the “Sweetness ratio (Compound:Sucrose)” value under setting [4] is reported as 160. Besides, the “Sucrose Equivalent” value by setting is: under setting [1], 2%; under setting [2], 2.5%; under setting [4], 4%.

`COC(=O)[C@H](COC(C)(C)C1CC=C(C)CC1)NC(=O)[C@@H](N)CC(=O)O` (stereo partly drawn) [Example 8C, α-L-aspartyl-O-[1,1-dimethyl-1-(4-methylcyclohex-3-enyl)methyl]-L-serine methyl ester]: under setting [2], the “Sweetness ratio (Compound:Sucrose)” value was 220 and the “Sucrose Equivalent” value was 2.2%. In addition, under setting [4], the “Sweetness ratio (Compound:Sucrose)” value turned out to be 208 and the “Sucrose Equivalent” value stood at 5.2%.

For the compound `COC(=O)[C@H](COC(C)(C)C1CCC(C)CC1)NC(=O)[C@@H](N)CC(=O)O` (stereo partly drawn) [Example 8D, α-L-aspartyl-O-[1,1-dimethyl-1-(4-methylcyclohexyl)methyl]-L-serine methyl ester], the “Sucrose Equivalent (Sensory Evaluations, Example 8)” value reads like this: (0.01% concentration) 2.2; (0.025% concentration) 5.2. Also, the “Sweetness ratio (Compound:Sucrose)” value under setting [4] is recorded as 240 and the “Sweetness ratio (Compound:Sucrose)” value under setting [5] was 220. For the same compound, the “Sucrose Equivalent” value under setting [4] is 6% and the “Sucrose Equivalent” value under setting [5] stood at 11%.

For the compound `COC(=O)[C@H](COC1C(C)(C)CCC1(C)C)NC(=O)[C@@H](N)CC(=O)O` [Example 10, α-L-Aspartyl-O-2,2,5,5-tetramethylcyclopentyl-L-serine methyl ester], the “Sweetness ratio (Compound:Sucrose)” value runs as follows: under setting [7], 1200; under setting [1], 1000; under setting [2], 800. Also, the “Sucrose Equivalent” value turned out to be 3% under setting [7], 5% under setting [1] and 8% under setting [2].

For the compound `COC(=O)[C@H](COC1CC2CCC1(C)C2(C)C)NC(=O)[C@@H](N)CC(=O)O` (stereo partly drawn) [Example 11, α-L-Aspartyl-O-1-bornyl-L-serine methyl ester], the “Sweetness ratio (Compound:Sucrose)” value was found to be 200 under setting [1], 250 under setting [2] and 180 under setting [4]. The “Sucrose Equivalent” value runs as follows: under setting [1], 1%; under setting [2], 2.5%; under setting [4], 4.5%.

For the compound `COC(=O)[C@H](COC1(C)CCCCCC1)NC(=O)[C@@H](N)CC(=O)O` [Example 12, α-L-aspartyl-O-(1-methyl-cycloheptyl)-L-serine methyl ester], under setting [2], the “Sweetness ratio (Compound:Sucrose)” value is listed as 200 and the “Sucrose Equivalent” value turned out to be 2%. Further, under setting [5], the “Sweetness ratio (Compound:Sucrose)” value was found to be 120 and the “Sucrose Equivalent” value came out at 6%.

Take `COC(=O)[C@H](COC1(C)CCCC1)NC(=O)[C@@H](N)CC(=O)O` [I, L-aspartyl-O-(1-methylcyclopentyl)-L-serine methyl ester]: the “Sweetness ratio (Compound:Sucrose)” value under setting [1] is 500, the “Sweetness ratio (Compound:Sucrose)” value under setting [2] is 500 and the “Sweetness ratio (Compound:Sucrose)” value under setting [4] worked out at 400. Moreover, the “Sucrose Equivalent” value is, setting by setting: under setting [1], 2.5%; under setting [2], 5%; under setting [4], 10%; under setting [5], 12%. Moreover, the “temporal and sensory qualities” value (determined by the panel of experts) is “excellent temporal and sensory qualities”.

With `COC(=O)[C@H](COC1CCCCC1)NC(=O)[C@@H](N)CC(=O)O` [cyclohexyl, α-L-aspartyl-O-(cyclohexyl)-L-serine methyl ester], under setting [2], the “Sweetness ratio (Compound:Sucrose)” value is given as 120 and the “Sucrose Equivalent” value was found to be 1.2%. Besides, under setting [4], the “Sweetness ratio (Compound:Sucrose)” value is on record as 127 and the “Sucrose Equivalent” value came to 3.2%.

In the case of `COC(=O)[C@H](COC1CCCC1)NC(=O)[C@@H](N)CC(=O)O` [cyclopentyl, α-L-aspartyl-O-(cyclopentyl)-L-serine methyl ester], the “Sweetness ratio (Compound:Sucrose)” value reads like this: under setting [1], 300; under setting [2], 230; under setting [4], 180. The “Sucrose Equivalent” value turned out to be 1.5% under setting [1], 2.3% under setting [2] and 4.5% under setting [4].

As to `COC(=O)[C@H](COC1CCCC1C)NC(=O)[C@@H](N)CC(=O)O` (stereo partly drawn) [trans-2-methylcyclopentyl, L-aspartyl-[O-(2-methylcyclopentyl)]-L-serine methyl ester], under setting [2], the “Sweetness ratio (Compound:Sucrose)” value was 300 and the “Sucrose Equivalent” value is 3%. Under setting [4], the “Sweetness ratio (Compound:Sucrose)” value came to 212 and the “Sucrose Equivalent” value was 5.3%.

Take `CCOC(=O)[C@H](COC1(C)CCCC1)NC(=O)[C@@H](N)CC(=O)O` [α-L-Aspartyl-O-(1-methylcyclopentyl)-L-serine ethyl ester]: for the setting “in vivo”, the sweetness equivalent was 150 x sucrose.
